# Source: US20090124501A1, “Silicic Acid Componenet Supplying Agent For Algae And Method For Supplying Silicic Acid Component To Algae” (Incorporated Administrative Agency Fisheries Research Agency, priority 2006, published 2009)
# System: Chaetoceros
# Experiment: Pigment and chlorophyll a content of Chaetoceros cultured for 20 days
# Assay type: cell-based
# Experimental: With respect to Chaetoceros cultured for 20 days after the silicic acid hydrogel and sodium metasilicate were added in an experimental plot and a control plot, respectively, under the same conditions as in Embodiment 3, difference in pigment and chlorophyll a content were examined. 20 mL of culture solution was collected from each of the experimental plot and the control plot, each cell density was measured, and only the cells were collected by suction filtration with a GF/F filter having a diameter of 47 mm (Whatman International Ltd.). Chlorophyll a was measured by a fluorescence method with a fluorometer (Turner Designs, Inc.) or by a measurement method with a spectrophotometer (Shimadzu Corporation).
smiles,measurement,setting,value
O=[Si]([O-])[O-].[Na+].[Na+] [sodium metasilicate],chlorophyll a content,Chaetoceros cultured for 20 days,0.12-0.16 pg/cell
same,"color of Chaetoceros collected on the filters, visual observation","after culturing for 20 days, GF/F filter",light brown color
